The text below walks through data of article PMC11279468, “Exploring a New Generation of Pyrimidine and Pyridine Derivatives as Anti-Influenza Agents Targeting the Polymerase PA–PB1 Subunits Interaction” (Pharmaceutics, 2024).

Where two headings read alike, the source gives them in different places.

Series [1] concerns the target T1, PA–PB1 interaction (6His-PA(239–716) / GST-PB1(1–25)) (Influenza A virus, UniProt P03433).
Series [2] concerns MDCK cells. To be noted: cited from earlier work.
The next series has as its system HEK 293T cells. To be noted: cited from earlier work.
Series [3] concerns Influenza virus strain A/PR/8/34 (H1N1). The note with it: plaque reduction assay in MDCK cells; cited from earlier work. A general note: Plaques are areas of infected cells; plaque reduction assays count them against a control.
Series [4] addresses T1, PA–PB1 interaction (6His-PA(239–716) / GST-PB1(1–25)). Nature of the series: biochemical. It counts as binding.
A further series can be described thus: in vitro. To be noted: dog.
In series [5] the test system is Influenza virus strain A/PR/8/34 (H1N1). In words: microbe, parasite or virus in culture. The note with it: unidentified influenza virus, MDCK, read-out: EC50 (PRA).
For series [6] the test system is unchanged.
Series [7] has as its system MDCK cells.
Experimental: (§1) The cytotoxicity of compounds was tested in MDCK cells using the 3-(4,5-dimethylthiazol-2-yl)-2,5-diphenyl tetrazolium bromide (MTT) method, as previously reported [32]. Briefly, MDCK cells (seeded at a density of 2 × 10^4 per well) were grown in 96-well plates for 24 h and then treated with serial dilutions of test compounds, or DMSO as a control, in DMEM supplemented with 10% FBS. After incubation at 37 °C for 48 h, 5 mg/mL of MTT (Sigma, Tokyo, Japan) in PBS was added into each well and incubated at 37 °C for a further 4 h. Successively, a solubilization solution was added to lyse the cells and incubated overnight at 37 °C. Finally, optical density was read at the wavelength of 570 nm on a microtiter plate reader (MultiSkan FC, ThermoFisher Scientific).
Series [8] has as its system MDCK cells. Nature of the series: Cytotoxicity assay (MTT) in MDCK cells. To be noted: read-out: CC50 (MDCK Cells); MTT assay, MDCK cells, 48 h; 50% decrease in cell viability.
Experimental: as §1
The nature of series [9]: Cytotoxicity assay (MTT) in MDCK cells.
Experimental: as §1
The mark [10] stands for this setting: read-out: IC50 (ELISA PA–PB1); ELISA PA–PB1 interaction; cited from earlier work.

As a reminder, the IC50 is the concentration needed to halve the response being measured. What is called EC50 is the midpoint of the concentration-response curve. The melting point is the temperature, or range, at which the solid turns liquid.

Experimental for in vitro: as §1

For `Cc1ccc(-c2cc(-c3ccccc3)nc(SCC(=O)Nc3cccc(C)c3)c2C#N)cc1` [Compound 1a], the IC50 in series [1] (ELISA PA–PB1 interaction; read-out: IC50 (ELISA PA–PB1); cited from earlier work) is 80 µM.
Regarding `CCC(C)C(NC(=O)CSc1nc(-c2ccccc2)cc(-c2ccc(C)cc2)c1C#N)C(=O)OC` (centres unmarked) [Compound 1b], the 50% inhibitory concentration (IC50) in [1] (read-out: IC50 (ELISA PA–PB1); ELISA-based PA–PB1 interaction assay; cited from earlier work) was 36 ± 3 µM. Further, the CC50 in the series on MDCK cells [2] was over 250 µM; in the series on HEK 293T cells it was 229 µM. The EC50 in series [3] is 39 ± 2 µM.
With `Cc1cccc(NC(=O)CSc2nc(-c3ccc(C(F)(F)F)cc3)cc(-c3ccc(C(F)(F)F)cc3)n2)c1` [Compound 1c], the IC50 in series [1] (setting [10]) was over 200 µM. Moreover, the CC50 in the series with MDCK cells [2] and in the series with HEK 293T cells was over 250 µM throughout. Besides, the 50% effective concentration (EC50) in [3] is 26.5 ± 4.3 µM.
Consider `Cc1cccc(NC(=O)CSc2nc(-c3ccccc3)cc(-c3ccccc3)n2)c1` [Compound 1d], for which the concentration for half-maximal inhibition (IC50) in series [1] (setting [10]) was 165 ± 18 µM. For the same compound, the CC50 was 10.1 ± 1.7 µM in the series with MDCK cells [2] and 22.3 µM in the series on HEK 293T cells. Further, the concentration for a half-maximal effect (EC50) in series [3] is 3.5 ± 0.5 µM.
As to `Cc1cccc(NC(=O)CSc2cc(-c3ccccc3)cc(-c3ccccc3)n2)c1` [Compound 1e], in [1] (setting [10]), the IC50 was 52.6 ± 9 µM. The CC50 in the series with MDCK cells [2] was over 250 µM. In addition, the concentration giving a half-maximal response (EC50) in series [3] is 7.3 ± 1.3 µM.
The compound `Cc1cccc(NC(=O)CSc2nc(-c3ccccc3)cc(-c3ccc(F)cc3)n2)c1` [Compound 2d, 2-{[4-(4-Fluorophenyl)-6-phenylpyrimidin-2-yl]thio}-N-(m-tolyl)acetamide] gave a melting point of 186 to 190 °C. In [4], this compound showed a concentration for half-maximal inhibition (IC50) of 90.1 ± 30.2 µM. The compound further had a CC50 at 48 h in “in vitro” of over 250 µM. For the same compound, the EC50 in [5] stood at 2.8 ± 0.6 µM. Moreover, in [6], the “antiviral activity relative to RBV” value was “almost five-fold more active than RBV”.
Turning to `Cc1cccc(NC(=O)CSc2nc(Sc3ccccc3)cc(-c3ccc(Cl)cc3)n2)c1` [Compound 2j, 2-{[4-(4-Chlorophenyl)-6-(phenylthio)pyrimidin-2-yl]thio}-N-(m-tolyl)acetamide], the melting point was in the range of 150 to 154 °C. Moreover, in [4], the IC50 was over 200 µM. The compound also showed a CC50 at 48 h in “in vitro” of 16 ± 4.2 µM. Besides, the “cytotoxicity (in words)” value with MDCK cells [7] is recorded as “high cytotoxicity”. Also, the concentration giving a half-maximal response (EC50) in series [5] is 32.9 ± 4.1 µM.
Compound `Cc1cccc(NC(=O)CSc2nc(Sc3ccccc3)cc(-c3ccc(F)cc3)n2)c1` [Compound 2k] returned a melting point of 146 to 147 °C. Also, the concentration for half-maximal inhibition (IC50) in [4] turned out to be 159 ± 29 µM. For the same compound, the CC50 at 48 h in “in vitro” turned out to be 48.2 ± 2.5 µM. Besides, the “cytotoxicity (in words)” value in the series on MDCK cells [7] is reported as “high cytotoxicity”. In addition, the EC50 in series [5] is 16.4 ± 1.9 µM.
The compound `Cc1cccc(NC(=O)CSc2nc(C(=O)Nc3ccccc3)cc(-c3ccccc3)n2)c1` [Compound 2l, 2-{[2-oxo-2-(m-tolylamino)ethyl]thio}-N,6-diphenylpyrimidine-4-carboxamide] came in with a melting point of 181 to 182 °C. Further, in [4], the IC50 came to 125 ± 37 µM. Further, the CC50 at 48 h in the series “in vitro” is 46.3 ± 10.4 µM. Also, the “cytotoxicity (in words)” value in the series on MDCK cells [7] is recorded as “high cytotoxicity”. For the same compound, the EC50 in [5] stood at 13 ± 5.5 µM.
The compound `COC(=O)[C@H](Cc1ccc(O)cc1)NC(=O)CSc1nc(-c2ccccc2)cc(-c2ccc(F)cc2)n1` [Compound 3c, Methyl (2-((4-(4-fluorophenyl)-6-phenylpyrimidin-2-yl)thio)acetyl)-L-tyrosinate] had a melting point of 167 to 168 °C. Further, in series [4], the concentration for half-maximal inhibition (IC50) stood at 172 ± 7 µM. The CC50 at 48 h in the series “in vitro” is over 250 µM. The EC50 in series [5] is over 100 µM.
The matching figures for `COC(=O)[C@H](Cc1c[nH]cn1)NC(=O)CSc1nc(-c2ccccc2)cc(-c2ccc(F)cc2)n1` [Compound 3d, Methyl (2-((4-(4-fluorophenyl)-6-phenylpyrimidin-2-yl)thio)acetyl)-L-histidinate]: 77 to 78 °C, 70 ± 2.8 µM, 98 ± 11.3 µM and over 100 µM.
The matching figures for `COC(=O)[C@@H](NC(=O)CSc1nc(-c2ccc(F)cc2)cc(-c2ccc(F)cc2)n1)C(C)C` [Compound 3e, Methyl (2-((4,6-bis(4-fluorophenyl)pyrimidin-2-yl)thio)acetyl)-L-valinate]: 174 to 175 °C, over 200 µM, over 250 µM and over 100 µM.
The like results for `CC[C@H](C)[C@H](NC(=O)CSc1nc(-c2ccc(F)cc2)cc(-c2ccc(F)cc2)n1)C(=O)OC` [Compound 3f, Methyl (2-((4,6-bis(4-fluorophenyl)pyrimidin-2-yl)thio)acetyl)-L-isoleucinate] were, in that order, 150 to 151 °C, over 200 µM, over 250 µM and over 100 µM.
On to `COC(=O)[C@H](Cc1c[nH]cn1)NC(=O)CSc1nc(-c2ccc(F)cc2)cc(-c2ccc(F)cc2)n1` [Compound 3h, Methyl (2-((4,6-bis(4-fluorophenyl)pyrimidin-2-yl)thio)acetyl)-L-histidinate], for which the melting point lay in the range of 107 to 108 °C. This compound showed a half-inhibitory concentration (IC50) in [4] of 108 ± 14 µM. The CC50 at 48 h in “in vitro” was over 250 µM. In addition, in series [5], the half-maximal effective concentration (EC50) is over 100 µM.
For the compound `CCC(CC)O[C@@H]1C=C(C(=O)O)C[C@H](N)[C@H]1NC(C)=O` [OSC, oseltamivir carboxylate], the CC50 with MDCK cells [8] is over 250 µM. For the same compound, in [6] (read-out: EC50 (PRA)), the EC50 turned out to be 0.04 ± 0.01 µM.
In series [9], `CSCC[C@H](N)C(=O)N[C@@H](CC(=O)O)C(=O)N[C@H](C(=O)N[C@@H](CC(N)=O)C(=O)N1CCC[C@H]1C(=O)N[C@H](C(=O)N[C@@H](CC(C)C)C(=O)N[C@@H](CC(C)C)C(=O)N[C@@H](Cc1ccccc1)C(=O)N[C@@H](CC(C)C)C(=O)N[C@@H](CCCCN)C(=O)N[C@H](C(=O)N1CCC[C@H]1C(=O)N[C@@H](C)C(=O)N[C@@H](CCC(N)=O)C(=O)N[C@@H](Cc1ccc(O)cc1)C(=O)NCC(=O)N[C@@H](CCCNC(=N)N)C(=O)N[C@@H](CCCCN)C(=O)N[C@@H](CCCCN)C(=O)N[C@@H](CCCNC(=N)N)C(=O)N[C@@H](CCCNC(=N)N)C(=O)N[C@@H](CCC(N)=O)C(=O)N[C@@H](CCCNC(=N)N)C(=O)N[C@@H](CCCNC(=N)N)C(=O)N[C@@H](CCCNC(=N)N)C(=O)N1CCC[C@H]1C(=O)N1CCC[C@H]1C(=O)O)C(C)C)[C@@H](C)O)C(C)C` [PB1(1–15)-Tat peptide] yielded a CC50 of over 250 µM. This compound registered a concentration for a half-maximal effect (EC50) in [6] (Influenza virus strain A/PR/8/34, 24 h) of 49.7 ± 5.1 µM.
Compound `NC(=O)c1ncn(C2O[C@H](CO)[C@@H](O)[C@H]2O)n1` (stereo partly drawn) [RBV, 1-D-ribofuranosyl-1,2,4-triazole-3-carboxamide, reference compound] gave a CC50 at 48 h in series [9] (dog, MDCK cells) of over 250 µM. Further, the concentration for a half-maximal effect (EC50) in series [5] was 12.8 ± 3.2 µM.
